Experimental findings from patent US20240116985A1, “STAPLED PEPTIDES AND METHODS THEREOF” (priority 2020, published 2024) are described below.

A short description of data set [1]: CHI Log D procedure. Particulars: pH 7.4. The data set is classed as physicochemical.
For data set [2], the target named is T1, full-length beta-Catenin (Uniprot ID P35222) (Homo sapiens, UniProt P35222).
T1 construct: 10 nM full-length beta-Catenin (Uniprot ID P35222)
T1 sequence (P35222 1-781): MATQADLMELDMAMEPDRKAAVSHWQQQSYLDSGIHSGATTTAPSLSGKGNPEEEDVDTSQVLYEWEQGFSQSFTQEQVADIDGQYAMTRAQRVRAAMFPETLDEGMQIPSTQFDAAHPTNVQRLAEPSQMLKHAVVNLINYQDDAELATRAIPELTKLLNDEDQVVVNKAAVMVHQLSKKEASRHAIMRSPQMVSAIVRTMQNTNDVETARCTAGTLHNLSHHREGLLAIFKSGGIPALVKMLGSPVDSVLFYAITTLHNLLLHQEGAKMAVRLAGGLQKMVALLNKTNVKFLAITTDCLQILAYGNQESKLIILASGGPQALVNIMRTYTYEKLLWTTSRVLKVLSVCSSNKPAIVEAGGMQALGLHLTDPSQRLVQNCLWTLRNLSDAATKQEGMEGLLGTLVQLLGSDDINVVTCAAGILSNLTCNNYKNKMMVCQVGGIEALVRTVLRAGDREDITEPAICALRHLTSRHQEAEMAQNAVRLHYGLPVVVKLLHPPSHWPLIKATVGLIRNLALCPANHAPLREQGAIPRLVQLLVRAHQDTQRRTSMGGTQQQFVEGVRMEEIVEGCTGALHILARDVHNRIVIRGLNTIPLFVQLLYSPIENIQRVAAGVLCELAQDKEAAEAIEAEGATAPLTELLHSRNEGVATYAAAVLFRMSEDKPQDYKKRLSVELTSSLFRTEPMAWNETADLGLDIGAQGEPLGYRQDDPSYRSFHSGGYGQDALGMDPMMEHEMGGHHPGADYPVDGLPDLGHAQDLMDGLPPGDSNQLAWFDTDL
Description: Fluorescence polarization IC50 (beta-catenin / 5FAM-TCF4 10-53 competition). The data set is classed as binding. A general note: Polarisation of emitted light reports the rotation of a fluorescent probe.

Setting [3] is: fluorescence polarization, read-out: beta-Catenin FP IC50.

Read-outs that look alike come from different tables or passages of the source.

For the compound `CC(=O)N1CCC[C@]12CC=CCCCC1(CCCC=CCCCCCC[C@@](C)(C(=O)N[C@@H](Cc3ccccc3)C(=O)N[C@@H](Cc3csc4ccccc34)C(=O)N[C@@H](Cc3c[nH]cn3)C(N)=O)NC(=O)[C@H](CCC(N)=O)NC(=O)[C@H](Cc3ccccc3)NC(=O)[C@H](C)NC(=O)[C@H](C)NC(=O)[C@H](CC(=O)O)NC(=O)[C@H](CC(=O)O)NC1=O)NC(=O)[C@H](CC(C)C)NC(=O)[C@H](CC(=O)O)NC2=O` (stereo partly drawn) [I-560, Ac-PL3-Asp-Leu-B5-Asp-Asp-Ala-Ala-Phe-Gln-S8-Phe-BztA-His-NH2], in data set [1], the “CHI Log D” value worked out at 2.391. The IC50 in data set [2] (setting [3]) and in data set [2] (read-out: FP EC50) was 81 nM each time.

Regarding `CC(=O)N1CCC[C@]12CC=CCCCC1(CCCC=CCCCCCC[C@@](C)(C(=O)N[C@@H](Cc3ccccc3)C(=O)N[C@@H](Cc3csc4ccccc34)C(=O)N[C@@H](CCC(N)=O)C(N)=O)NC(=O)[C@H](CC(N)=O)NC(=O)[C@H](Cc3ccccc3)NC(=O)[C@H](C)NC(=O)[C@H](C)NC(=O)[C@H](CC(=O)O)NC(=O)[C@H](CC(=O)O)NC1=O)NC(=O)[C@H](CC(C)C)NC(=O)[C@H](CC(=O)O)NC2=O` (stereo partly drawn) [I-562, Ac-PL3-Asp-Leu-B5-Asp-Asp-Ala-Ala-Phe-Asn-S8-Phe-BztA-Gln-NH2], the “CHI Log D” value in data set [1] stood at 2.269. Also, the IC50 in data set [2] (setting [3]) and in data set [2] (read-out: FP EC50) was 51 nM in each case.

Consider `CC(=O)N1CCC[C@]12CC=CCCCC1(CCCC=CCCCCCC[C@@](C)(C(=O)N[C@@H](Cc3ccccc3)C(=O)N[C@@H](Cc3csc4ccccc34)C(=O)N[C@@H](CCC(N)=O)C(N)=O)NC(=O)[C@H](CC(N)=O)NC(=O)[C@H](Cc3ccccc3)NC(=O)[C@H](C)NC(=O)[C@H](C)NC(=O)[C@H](CC(=O)O)NC(=O)[C@H](CC(=O)O)NC1=O)NC(=O)[C@H](C(C)C)NC(=O)[C@H](CC(=O)O)NC2=O` (stereo partly drawn) [I-566, Ac-PL3-Asp-Val-B5-Asp-Asp-Ala-Ala-Phe-Asn-S8-Phe-BztA-Gln-NH2], for which, in data set [1], the “CHI Log D” value was determined as 2.175. Besides, the IC50 in data set [2] (setting [3]) and in data set [2] (read-out: FP EC50) was 76 nM each time.

With `CC[C@@H]1NC(=O)[C@H](CC(=O)O)NC(=O)[C@]2(CC=CCCCC3(CCCC=CCCCCCC[C@@](C)(C(=O)N[C@@H](Cc4ccccc4)C(=O)N[C@@H](Cc4csc5ccccc45)C(=O)N[C@@H](CCC(N)=O)C(N)=O)NC(=O)[C@H](CCC(N)=O)NC(=O)[C@H](Cc4ccccc4)NC(=O)[C@H](C)NC(=O)[C@H](C)NC(=O)[C@H](CCC(=O)O)NC(=O)[C@H](CC(=O)O)NC3=O)NC1=O)CCCN2C(C)=O` (stereo partly drawn) [I-568, Ac-PL3-Asp-Abu-B5-Asp-Glu-Ala-Ala-Phe-Gln-S8-Phe-BztA-Gln-NH2], the “CHI Log D” value in data set [1] was determined as 2.158. Besides, the IC50 in data set [2] (setting [3]) and in data set [2] (read-out: FP EC50) was 73 nM in each case.

Consider `CC[C@@H]1NC(=O)[C@H](CC(=O)O)NC(=O)[C@]2(CC=CCCCC3(CCCC=CCCCCCC[C@@](C)(C(=O)N[C@@H](Cc4ccccc4)C(=O)N[C@@H](Cc4csc5ccccc45)C(=O)N[C@@H](Cc4c[nH]cn4)C(N)=O)NC(=O)[C@H](CCC(N)=O)NC(=O)[C@H](Cc4ccccc4)NC(=O)[C@H](C)NC(=O)[C@H](C)NC(=O)[C@H](CCC(=O)O)NC(=O)[C@H](CC(=O)O)NC3=O)NC1=O)CCCN2C(C)=O` (stereo partly drawn) [I-570, Ac-PL3-Asp-Abu-B5-Asp-Glu-Ala-Ala-Phe-Gln-S8-Phe-BztA-His-NH2], for which, in data set [1], the “CHI Log D” value was found to be 2.219. Besides, the IC50 in data set [2] (setting [3]) and in data set [2] (read-out: FP EC50) was 56 nM throughout.

In the case of `CC[C@@H]1NC(=O)[C@H](CC(=O)O)NC(=O)[C@]2(CC=CCCCC3(CCCC=CCCCCCC[C@@](C)(C(=O)N[C@@H](Cc4ccccc4)C(=O)N[C@@H](Cc4csc5ccccc45)C(=O)N[C@@H](CCC(N)=O)C(N)=O)NC(=O)[C@H](CC(N)=O)NC(=O)[C@H](Cc4ccccc4)NC(=O)[C@H](C)NC(=O)[C@H](C)NC(=O)[C@H](CC(=O)O)NC(=O)[C@H](CC(=O)O)NC3=O)NC1=O)CCCN2C(C)=O` (stereo partly drawn) [I-572, Ac-PL3-Asp-Abu-B5-Asp-Asp-Ala-Ala-Phe-Asn-S8-Phe-BztA-Gln-NH2], the “CHI Log D” value in data set [1] stood at 2.064. Further, the IC50 in data set [2] (setting [3]) and in data set [2] (read-out: FP EC50) was 73 nM each time.

As to `CC[C@H](C)[C@@H]1NC(=O)[C@H](CC(=O)O)NC(=O)[C@]2(CC=CCCCC3(CCCC=CCCCCCC[C@@](C)(C(=O)N[C@@H](Cc4ccccc4)C(=O)N[C@@H](Cc4csc5ccccc45)C(=O)N[C@@H](Cc4c[nH]cn4)C(N)=O)NC(=O)[C@H](CCC(N)=O)NC(=O)[C@H](Cc4ccccc4)NC(=O)[C@H](C)NC(=O)[C@H](C)NC(=O)[C@H](CC(=O)O)NC(=O)[C@H](CC(=O)O)NC3=O)NC1=O)CCCN2C(C)=O` (stereo partly drawn) [I-581, Ac-PL3-Asp-Ile-B5-Asp-Asp-Ala-Ala-Phe-Gln-S8-Phe-BztA-His-NH2], in data set [1], the “CHI Log D” value amounted to 2.458. Moreover, the IC50 in data set [2] (setting [3]) and in data set [2] (read-out: FP EC50) was 112 nM throughout.

`CC(=O)N1CCC[C@]12CC=CCCCC1(CCCC=CCCCCCC[C@@](C)(C(=O)N[C@@H](Cc3ccccc3)C(=O)N[C@@H](Cc3csc4ccccc34)C(=O)N[C@@H](Cc3c[nH]cn3)C(N)=O)NC(=O)[C@H](CC(N)=O)NC(=O)[C@H](Cc3ccccc3)NC(=O)[C@H](C)NC(=O)[C@H](C)NC(=O)[C@H](CC(=O)O)NC(=O)[C@H](CC(=O)O)NC1=O)NC(=O)[C@H](CCC(C)C)NC(=O)[C@H](CC(=O)O)NC2=O` (stereo partly drawn) [I-583, Ac-PL3-Asp-hLeu-B5-Asp-Asp-Ala-Ala-Phe-Asn-S8-Phe-BztA-His-NH2]: in data set [1], the “CHI Log D” value is 2.563. In addition, the IC50 in data set [2] (setting [3]) and in data set [2] (read-out: FP EC50) was 69 nM each time.

As for `CC(=O)N1CCC[C@]12CC=CCCCC1(CCCC=CCCCCCC[C@@](C)(C(=O)N[C@@H](Cc3ccccc3)C(=O)N[C@@H](Cc3csc4ccccc34)C(=O)N[C@@H](CCC(N)=O)C(N)=O)NC(=O)[C@H](CCC(N)=O)NC(=O)[C@H](Cc3ccccc3)NC(=O)[C@H](C)NC(=O)[C@H](C)NC(=O)[C@H](CCC(=O)O)NC(=O)[C@H](CC(=O)O)NC1=O)NC(=O)[C@H](CCCCNC(=O)CN=[N+]=[N-])NC(=O)[C@H](CC(=O)O)NC2=O` (stereo partly drawn) [I-589, Ac-PL3-Asp-[AzAc]Lys-B5-Asp-Glu-Ala-Ala-Phe-Gln-S8-Phe-BztA-Gln-NH2], in data set [1], the “CHI Log D” value is on record as 2.119. For the same compound, the IC50 in data set [2] (read-out: FP EC50) is 48 nM.

As to `CC(=O)N1CCC[C@]12CC=CCCCC1(CCCC=CCCCCCC[C@@](C)(C(=O)N[C@@H](Cc3ccccc3)C(=O)N[C@@H](Cc3csc4ccccc34)C(=O)N[C@@H](CCC(N)=O)C(N)=O)NC(=O)[C@H](CCC(N)=O)NC(=O)[C@H](Cc3ccccc3)NC(=O)[C@H](C)NC(=O)[C@H](C)NC(=O)[C@H](CCC(=O)O)NC(=O)[C@H](CC(=O)O)NC1=O)NC(=O)[C@H](CCCCNC(=O)CN=[N+]=[N-])NC(=O)[C@H](CC(=O)O)NC2=O` (stereo partly drawn) [I-590, Ac-PL3-Asp-[AzAc]Lys-B5-Asp-Glu-Ala-Ala-Phe-Gln-S8-Phe-BztA-Gln-NH2], in data set [1], the “CHI Log D” value is 2.152. Further, the IC50 in data set [2] (read-out: FP EC50) worked out at 45 nM.

As to `CC[C@H](C)[C@@H]1NC(=O)[C@H](CC(=O)O)NC(=O)[C@]2(CC=CCCCC3(CCCC=CCCCCCC[C@@](C)(C(=O)N[C@@H](Cc4ccccc4)C(=O)N[C@@H](Cc4csc5ccccc45)C(=O)N[C@@H](CCC(N)=O)C(N)=O)NC(=O)[C@H](CCC(N)=O)NC(=O)[C@H](Cc4ccccc4)NC(=O)[C@H](C)NC(=O)[C@H](CCCCNC(=O)CN=[N+]=[N-])NC(=O)[C@H](CCC(=O)O)NC(=O)[C@H](CC(=O)O)NC3=O)NC1=O)CCCN2C(C)=O` (stereo partly drawn) [I-591, Ac-PL3-Asp-Ile-B5-Asp-Glu-[AzAc]Lys-Ala-Phe-Gln-S8-Phe-BztA-Gln-NH2], in data set [1], the “CHI Log D” value came out at 2.348. Further, the IC50 in data set [2] (read-out: FP EC50) amounted to 64 nM.

As for `CC[C@H](C)[C@@H]1NC(=O)[C@H](CC(=O)O)NC(=O)[C@]2(CC=CCCCC3(CCCC=CCCCCCC[C@@](C)(C(=O)N[C@@H](Cc4ccccc4)C(=O)N[C@@H](Cc4csc5ccccc45)C(=O)N[C@@H](CCC(N)=O)C(N)=O)NC(=O)[C@H](CCC(N)=O)NC(=O)[C@H](Cc4ccccc4)NC(=O)[C@H](C)NC(=O)[C@H](CCCCNC(=O)CN=[N+]=[N-])NC(=O)[C@H](CCC(=O)O)NC(=O)[C@H](CC(=O)O)NC3=O)NC1=O)CCCN2C(C)=O` (stereo partly drawn) [I-592, Ac-PL3-Asp-Ile-B5-Asp-Glu-[AzAc]Lys-Ala-Phe-Gln-S8-Phe-BztA-Gln-NH2], the “CHI Log D” value in data set [1] was 2.414. In data set [2] (read-out: FP EC50), the IC50 is 24 nM.

For `CC[C@H](C)[C@@H]1NC(=O)[C@H](CC(=O)O)NC(=O)[C@]2(CC=CCCCC3(CCCC=CCCCCCC[C@@](C)(C(=O)N[C@@H](Cc4ccccc4)C(=O)N[C@@H](Cc4csc5ccccc45)C(=O)N[C@@H](CCC(N)=O)C(N)=O)NC(=O)[C@H](CCC(N)=O)NC(=O)[C@H](Cc4ccccc4)NC(=O)[C@H](CCCCNC(=O)CN=[N+]=[N-])NC(=O)[C@H](C)NC(=O)[C@H](CCC(=O)O)NC(=O)[C@H](CC(=O)O)NC3=O)NC1=O)CCCN2C(C)=O` (stereo partly drawn) [I-593, Ac-PL3-Asp-Ile-B5-Asp-Glu-Ala-[AzAc]Lys-Phe-Gln-S8-Phe-BztA-Gln-NH2], the chromatographic logD (in general, a lipophilicity value derived from retention on a column) in data set [1] was determined as 2.12. The compound further came in with an IC50 in data set [2] (FP EC50 (nM)) of 68 nM.
